{"source": "patent US9096528B2", "about": "“2-aminonicotinic acid ester derivative and bactericide containing same as active ingredient” (AGRO-KANESHO CO., LTD., priority 2012, dated 2015)", "system": "Botrytis cinerea", "experiment": "Test on Botrytis cinerea (gray mold) of a cucumber", "type": "in vivo", "conditions": "25 ppm; cut cucumber cotyledons inoculated with spore suspension; 20° C. for 72 hours; from lesion diameter vs non-treatment region", "experimental": "A cucumber plant (a plant variety: “Sagami Han-shiro”) of 12 days after seeding was prepared for the test. Parts of cotyledons of the cucumber plant were cut out with leaving about 2 cm of its rachis. Apart from this, a plastic case with a size of 32 cm×24 cm×4.5 cm (length×width×height), at the bottom of which a paper towel sufficiently moistened with water was laid, and on the paper towel a mesh with legs was placed, was prepared. On the mesh, the above-described cut-out parts of cotyledons were placed such that leaves were horizontal. To the central part of each of the cotyledons, 50 μl of a spore suspension (1×10^6 spores/ml) of Botrytis cinerea of a cucumber was added dropwise. Thereafter, each of cotyledons was covered with a paper disc with a diameter of 6 mm. Apart from this, an emulsion prepared according to the above Preparation Example 1 was diluted with an aqueous solution of 0.02% Tween 20 in demineralized water to prepare a diluent of a predetermined concentration. 50 μl of the diluent was dropped on each paper disc. The plastic case was lidded and was placed under the condition of 20° C. for 72 hours, and then the diameter of each lesion was measured and the controlling rate for Botrytis cinerea (gray mold) of a cucumber was calculated according to the following equation. […]", "data": [{"smiles": "CCOc1cccc(Oc2ccc(CNC(=O)c3cccnc3N)cc2)c1", "note": "[A]", "values": [{"measurement": "Controlling rate (%)", "value": 54, "unit": "%"}]}]}
